Source: patent publication US6737383B1, “Herbicidal oxadiazolidines” (priority 1999, dated 2004)

Tests used:
blackgrass = test: Test B pre/postemergence blackgrass; format: in vivo, Alopecurus myosuroides
Method in brief: (§1)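 Herbicidal effect was estimated by eye on a ten-point control scale after plants spent twelve to sixteen days in a greenhouse following soil or foliar treatment. Foliar sprays targeted plants at one to four leaves; all doses were formulated in a non-phytotoxic solvent with surfactant.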

cocklebur = test: Test B pre/postemergence cocklebur; format: in vivo, Xanthium strumarium
Method in brief: as §1

purple nutsedge = test: Test B pre/postemergence purple nutsedge; format: in vivo, Cyperus rotundus
Method in brief: as §1

rape = test: Test B pre/postemergence rape; format: in vivo, Brassica napus
Method in brief: as §1

surinam grass = test: Test B pre/postemergence surinam grass; format: in vivo, Brachiaria decumbens
Method in brief: as §1

velvetleaf = test: Test B pre/postemergence velvetleaf; format: in vivo, Abutilon theophrasti
Method in brief: as §1

bedstraw = test: Test B pre/postemergence bedstraw; format: in vivo, Galium aparine
Method in brief: as §1

soybean = test: Test B pre/postemergence soybean; format: in vivo, Glycine max
Method in brief: as §1

wheat = test: Test B pre/postemergence wheat; format: in vivo, Triticum aestivum
Method in brief: as §1

corn = test: Test B pre/postemergence corn; format: in vivo, Zea mays
Method in brief: as §1

wild oat = test: Test B pre/postemergence wild oat; format: in vivo, Avena fatua
Method in brief: as §1

giant foxtail = test: Test B pre/postemergence giant foxtail; format: in vivo, Setaria faberii
Method in brief: as §1

crabgrass = test: Test B pre/postemergence crabgrass; format: in vivo, Digitaria sanguinalis
Method in brief: as §1

morningglory = test: Test B pre/postemergence morningglory; format: in vivo, Ipomoea hederacea
Method in brief: as §1

pigweed = test: Test B pre/postemergence pigweed; format: in vivo, Amaranthus retroflexus
Method in brief: as §1

sugar beet = test: Test B pre/postemergence sugar beet; format: in vivo, Beta vulgaris
Method in brief: as §1

[1] = Postemergence, Rate 62 g/ha, scale of 0 to 10, 0 is no effect, 10 is complete control
[2] = Postemergence, Rate 125 g/ha, scale 0 to 10, 0 is no effect, 10 is complete control
[3] = Postemergence, Rate 500 g/ha, scale 0 to 10, 0 is no effect, 10 is complete control
[4] = Preemergence, Rate 62 g/ha, scale 0 to 10 (0 no effect, 10 complete control)
[5] = Preemergence, Rate 125 g/ha, scale 0 to 10, 0 is no effect, 10 is complete control
[6] = Rate 250 g/ha, Postemergence, scale of 0 to 10 where 0 is no effect and 10 is complete control
[7] = Preemergence, Rate 500 g/ha, scale of 0 to 10 where 0 is no effect and 10 is complete control

CCOC(=O)C=C(Cn1c(=O)on(C(=O)N(c2ccc(Cl)cc2)C(C)C)c1=O)OCC [Compound 549]
Blackgrass plant response rating (blackgrass; [1]): 0
Blackgrass plant response rating (blackgrass; [2]): 0
Plant response rating, Blackgrass (blackgrass; [3]): 3
Blackgrass plant response rating (blackgrass; [4]): 0
Blackgrass plant response rating (blackgrass; [5]): 4
Blackgrass plant response rating (0 to 10 scale) (blackgrass; Preemergence, Rate 250 g/ha): 6
Plant response rating, Blackgrass (blackgrass; [6]): 2
Cocklebur plant response rating (cocklebur; [1]): 0
Cocklebur plant response rating (cocklebur; [2]): 0
Plant response rating, Cocklebur (cocklebur; [3]): 4
Cocklebur plant response rating (cocklebur; [4]): 0
Cocklebur plant response rating (cocklebur; [5]): 0
Cocklebur plant response rating (0 to 10 scale) (cocklebur; Preemergence, Rate 250 g/ha): 0
Cocklebur plant response rating (cocklebur; [7]): 0
Plant response rating, Cocklebur (cocklebur; [6]): 0
Nutsedge plant response rating (purple nutsedge; [2]): 0
Plant response rating, Nutsedge (purple nutsedge; [3]): 0
Nutsedge plant response rating (purple nutsedge; [5]): 0
Nutsedge plant response rating (0 to 10 scale) (purple nutsedge; Preemergence, Rate 250 g/ha): 0
Nutsedge plant response rating (purple nutsedge; [7]): 0
Rape plant response rating (rape; [1]): 0
Rape plant response rating (rape; [2]): 0
Plant response rating, Rape (rape; [3]): 7
Rape plant response rating (rape; [4]): 0
Rape plant response rating (rape; [5]): 0
Rape plant response rating (0 to 10 scale) (rape; Preemergence, Rate 250 g/ha): 0
Rape plant response rating (rape; [7]): 0
Plant response rating, Rape (rape; [6]): 5
B. signalgrass plant response rating (surinam grass; [1]): 0
B. signalgrass plant response rating (surinam grass; [2]): 0
Plant response rating, B. signalgrass (surinam grass; [3]): 3
B. signalgrass plant response rating (surinam grass; [4]): 0
B. signalgrass plant response rating (surinam grass; [5]): 0
B. signalgrass plant response rating (0 to 10 scale, 0 is no effect, 10 is complete control) (surinam grass; Preemergence, Rate 250 g/ha): 0
B. signalgrass plant response rating (surinam grass; [7]): 0
Plant response rating, B. signalgrass (surinam grass; [6]): 0
Velvetleaf plant response rating (velvetleaf; [2]): 0
Plant response rating, Velvetleaf (velvetleaf; [3]): 4
Velvetleaf plant response rating (velvetleaf; [4]): 0
Velvetleaf plant response rating (velvetleaf; [5]): 0
Velvetleaf plant response rating (0 to 10 scale) (velvetleaf; Preemergence, Rate 250 g/ha): 0
Velvetleaf plant response rating (velvetleaf; [7]): 0
Plant response rating, Velvetleaf (velvetleaf; [6]): 4
Bedstraw plant response rating (bedstraw; [1]): 0
Bedstraw plant response rating (bedstraw; [2]): 0
Plant response rating, Bedstraw (bedstraw; [3]): 8
Bedstraw plant response rating (bedstraw; [4]): 0
Bedstraw plant response rating (bedstraw; [5]): 0
Bedstraw plant response rating (0 to 10 scale) (bedstraw; Preemergence, Rate 250 g/ha): 5
Bedstraw plant response rating (bedstraw; [7]): 5
Plant response rating, Bedstraw (bedstraw; [6]): 0
Soybean plant response rating (soybean; [1]): 2
Soybean plant response rating (soybean; [2]): 2
Plant response rating, Soybean (soybean; [3]): 3
Soybean plant response rating (soybean; [4]): 0
Soybean plant response rating (soybean; [5]): 0
Soybean plant response rating (0 to 10 scale) (soybean; Preemergence, Rate 250 g/ha): 0
Soybean plant response rating (soybean; [7]): 0
Plant response rating, Soybean (soybean; [6]): 2
Wheat plant response rating (wheat; [1]): 0
Wheat plant response rating (wheat; [2]): 0
Plant response rating, Wheat (wheat; [3]): 2
Wheat plant response rating (wheat; [4]): 0
Wheat plant response rating (wheat; [5]): 0
Wheat plant response rating (wheat; [7]): 0
Plant response rating, Wheat (wheat; [6]): 0
Corn plant response rating (corn; [1]): 0
Corn plant response rating (corn; [2]): 0
Plant response rating, Corn (corn; [3]): 0
Corn plant response rating (corn; [4]): 0
Corn plant response rating (corn; [5]): 0
Corn plant response rating (0 to 10 scale) (corn; Preemergence, Rate 250 g/ha): 0
Corn plant response rating (corn; [7]): 0
Plant response rating, Corn (corn; [6]): 0
Wild oats plant response rating (wild oat; [1]): 0
Wild oats plant response rating (wild oat; [2]): 0
Plant response rating, Wild oats (wild oat; [3]): 2
Wild oats plant response rating (wild oat; [4]): 0
Wild oats plant response rating (wild oat; [5]): 0
Wild oats plant response rating (0 to 10 scale) (wild oat; Preemergence, Rate 250 g/ha): 0
Wild oats plant response rating (wild oat; [7]): 3
Plant response rating, Wild oats (wild oat; [6]): 0
Giant foxtail plant response rating (giant foxtail; [1]): 2
Giant foxtail plant response rating (giant foxtail; [2]): 2
Plant response rating, Giant foxtail (giant foxtail; [3]): 7
Giant foxtail plant response rating (giant foxtail; [4]): 9
Giant foxtail plant response rating (giant foxtail; [5]): 10
Giant foxtail plant response rating (0 to 10 scale) (giant foxtail; Preemergence, Rate 250 g/ha): 10
Giant foxtail plant response rating (giant foxtail; [7]): 10
Plant response rating, Giant foxtail (giant foxtail; [6]): 2
Crabgrass plant response rating (crabgrass; [1]): 2
Crabgrass plant response rating (crabgrass; [2]): 3
Plant response rating, Crabgrass (crabgrass; [3]): 9
Crabgrass plant response rating (crabgrass; [4]): 3
Crabgrass plant response rating (crabgrass; [5]): 7
Crabgrass plant response rating (0 to 10 scale) (crabgrass; Preemergence, Rate 250 g/ha): 10
Crabgrass plant response rating (crabgrass; [7]): 10
Plant response rating, Crabgrass (crabgrass; [6]): 6
Morningglory plant response rating (morningglory; [1]): 4
Morningglory plant response rating (morningglory; [2]): 4
Plant response rating, Morningglory (morningglory; [3]): 4
Morningglory plant response rating (morningglory; [4]): 0
Morningglory plant response rating (morningglory; [5]): 0
Morningglory plant response rating (0 to 10 scale) (morningglory; Preemergence, Rate 250 g/ha): 0
Morningglory plant response rating (morningglory; [7]): 0
Plant response rating, Morningglory (morningglory; [6]): 4
Redroot pigweed plant response rating (pigweed; [1]): 0
Redroot pigweed plant response rating (pigweed; [2]): 0
Plant response rating, Redroot pigweed (pigweed; [3]): 8
Redroot pigweed plant response rating (pigweed; [4]): 6
Redroot pigweed plant response rating (pigweed; [5]): 6
Plant response rating, Redroot pigweed (pigweed; [6]): 0
Sugarbeets plant response rating (sugar beet; [1]): 0
Sugarbeets plant response rating (sugar beet; [2]): 0
Plant response rating, Sugarbeets (sugar beet; [3]): 4
Sugarbeets plant response rating (sugar beet; [4]): 0
Sugarbeets plant response rating (sugar beet; [5]): 0
Sugarbeets plant response rating (0 to 10 scale) (sugar beet; Preemergence, Rate 250 g/ha): 0
Sugarbeets plant response rating (sugar beet; [7]): 3
Plant response rating, Sugarbeets (sugar beet; [6]): 0
